From US11083725B2 (priority 2014, dated 2021)

System: NHBE cells
Test: Biolog metabolic array: substrate use by NHBE cells with or without CA09 infection
Assay type: cell-based, human
Conditions: for Substrate use, 590 nm absorbance normalized to zero hour, 1 hr: Biolog PMM2, 1 hr; for Substrate use, 590 nm absorbance normalized to zero hour, 5 hr: Biolog PMM2, 5 hr; for Substrate use, 590 nm absorbance normalized to zero hour, 7 hr: Biolog PMM2, 7 hr; for Substrate use, 590 nm absorbance normalized to zero hour, 0 hr: Biolog PMM2, 0 hr
[1] = Control (uninfected) NHBE cells
[2] = Virus (CA09, MOI 1) infected NHBE cells
[3] = Virus (CA09-infected, MOI 1) NHBE cells
[4] = Virus: CA09-infected NHBE cells, MOI 1, Biolog PMM2

Row | Structure (SMILES) | 590 nm absorbance normalized to zero hour (substrate use), 1 hr [1] | 590 nm absorbance normalized to zero hour (substrate use), 2 hr [1] | 590 nm absorbance normalized to zero hour (substrate use), 3 hr [1] | 590 nm absorbance normalized to zero hour (substrate use), 4 hr [1] | 590 nm absorbance normalized to zero hour (substrate use), 6 hr [1] | 590 nm absorbance normalized to zero hour (substrate use), 8 hr [1] | 590 nm absorbance normalized to zero hour (substrate use), 9 hr [1] | 590 nm absorbance normalized to zero hour (substrate use), 10 hr [1] | 590 nm absorbance normalized to zero hour (substrate use), 11 hr [1] | Substrate use, 590 nm absorbance normalized to zero hour, 1 hr [1] | Substrate use, 590 nm absorbance normalized to zero hour, 5 hr [1] | Substrate use, 590 nm absorbance normalized to zero hour, 7 hr [1] | 590 nm absorbance normalized to zero hour (substrate use), 1 hr [3] | 590 nm absorbance normalized to zero hour (substrate use), 2 hr [3] | 590 nm absorbance normalized to zero hour (substrate use), 3 hr [3] | 590 nm absorbance normalized to zero hour (substrate use), 4 hr [3] | 590 nm absorbance normalized to zero hour (substrate use), 6 hr [3] | 590 nm absorbance normalized to zero hour (substrate use), 8 hr [3] | 590 nm absorbance normalized to zero hour (substrate use), 9 hr [3] | 590 nm absorbance normalized to zero hour (substrate use), 10 hr [3] | other results
1 | OCC(O)CO [Glycerol] | 1.36 | 1.42 | 1.19 | 1.18 | 0.68 | 1.04 | 1.08 | 1.04 | 1.08 | 1.36 | 1.27 | 1.06 | 2.05 | 2.67 | 3.09 | 3.24 | 3.71 | 4.11 | 4.51 | 4.63 | Substrate use, 590 nm absorbance normalized to zero hour, 11 hr (Control (uninfected) NHBE cells, Biolog PMM2, 11 hr): 1.04; Substrate use, 590 nm absorbance normalized to zero hour, 1 hr [2]: 1.04; Substrate use, 590 nm absorbance normalized to zero hour, 2 hr (Virus (CA09, MOI 1) infected NHBE cells, Biolog PMM2, 2 hr): 1.04; Substrate use, 590 nm absorbance normalized to zero hour, 3 hr (Virus (CA09, MOI 1) infected NHBE cells, Biolog PMM2, 3 hr): 1.04; Substrate use, 590 nm absorbance normalized to zero hour, 4 hr (Virus (CA09, MOI 1) infected NHBE cells, Biolog PMM2, 4 hr): 1.04; Substrate use, 590 nm absorbance normalized to zero hour, 5 hr [2]: 3.55; Substrate use, 590 nm absorbance normalized to zero hour, 7 hr [2]: 3.91; 590 nm absorbance normalized to zero hour (substrate use), 11 hr [3]: 5.09
2 | OC[C@H]1O[C@H](OCC2O[C@@H](O)[C@H](O)[C@@H](O)[C@@H]2O)[C@H](O)[C@@H](O)[C@H]1O (stereo partly drawn) [D-Melibiose] | 0.88 | 1.14 | 1.40 | 1.44 | 1.81 | 1.80 | 2.05 | 2.19 | 1.80 | 0.88 | 1.69 | 1.88 | 3.65 | 3.76 | 3.77 | 3.78 | 3.58 | 3.20 | 1.54 | 1.54 | 590 nm absorbance normalized to zero hour (substrate use), 0 hr [1]: 1.00; Substrate use, 590 nm absorbance normalized to zero hour, 0 hr [1]: 1.00; Substrate use, 590 nm absorbance normalized to zero hour, 0 hr [2]: 1.00; Substrate use, 590 nm absorbance normalized to zero hour, 1 hr [2]: 3.65; Substrate use, 590 nm absorbance normalized to zero hour, 5 hr [2]: 3.62; Substrate use, 590 nm absorbance normalized to zero hour, 7 hr [2]: 3.59; 590 nm absorbance normalized to zero hour (substrate use), 0 hr [3]: 1.00; 590 nm absorbance normalized to zero hour (substrate use), 11 hr [3]: 1.63
3 | OC[C@H]1O[C@@](CO)(O[C@H]2O[C@H](CO)[C@@H](O)[C@H](O)[C@H]2O)[C@@H](O[C@H]2O[C@H](CO)[C@@H](O)[C@H](O)[C@H]2O)[C@@H]1O [D-Melezitose] | 1.47 | 1.93 | 2.23 | 2.39 | 3.85 | 3.55 | 3.84 | 4.31 | 3.97 | 1.47 | 2.80 | 3.32 | 1.67 | 2.39 | 2.73 | 2.88 | 3.57 | 3.98 | 4.49 | 4.69 | 590 nm absorbance normalized to zero hour (substrate use), 0 hr [1]: 1.00; Substrate use, 590 nm absorbance normalized to zero hour, 0 hr [1]: 1.00; 590 nm absorbance normalized to zero hour (substrate use), 0 hr [3]: 1.00; 590 nm absorbance normalized to zero hour (substrate use), 5 hr [3]: 3.35; 590 nm absorbance normalized to zero hour (substrate use), 7 hr [3]: 3.77; 590 nm absorbance normalized to zero hour (substrate use), 11 hr [3]: 5.01; 590 nm absorbance normalized to zero hour (substrate use), 0 hr [4]: 1.00; 590 nm absorbance normalized to zero hour (substrate use), 1 hr [4]: 1.67; 590 nm absorbance normalized to zero hour (substrate use), 2 hr [4]: 2.39; 590 nm absorbance normalized to zero hour (substrate use), 3 hr [4]: 2.73; 590 nm absorbance normalized to zero hour (substrate use), 4 hr [4]: 2.88; 590 nm absorbance normalized to zero hour (substrate use), 5 hr [4]: 3.35; 590 nm absorbance normalized to zero hour (substrate use), 6 hr [4]: 3.57; 590 nm absorbance normalized to zero hour (substrate use), 7 hr [4]: 3.77; 590 nm absorbance normalized to zero hour (substrate use), 8 hr [4]: 3.98; 590 nm absorbance normalized to zero hour (substrate use), 9 hr [4]: 4.49; 590 nm absorbance normalized to zero hour (substrate use), 10 hr [4]: 4.69; 590 nm absorbance normalized to zero hour (substrate use), 11 hr [4]: 5.01
4 | O=C[C@H](O)[C@@H](O)[C@H](O)[C@H](O)CO [D-(+)-Glucose] | – | – | – | – | – | – | – | – | – | – | – | – | – | – | – | – | – | – | – | – | 590 nm absorbance normalized to zero hour (substrate use), 1 hr [4]: 0.82; 590 nm absorbance normalized to zero hour (substrate use), 2 hr [4]: 1.44; 590 nm absorbance normalized to zero hour (substrate use), 3 hr [4]: 1.76; 590 nm absorbance normalized to zero hour (substrate use), 4 hr [4]: 1.96; 590 nm absorbance normalized to zero hour (substrate use), 5 hr [4]: 2.64; 590 nm absorbance normalized to zero hour (substrate use), 6 hr [4]: 2.91; 590 nm absorbance normalized to zero hour (substrate use), 7 hr [4]: 3.23; 590 nm absorbance normalized to zero hour (substrate use), 8 hr [4]: 3.59; 590 nm absorbance normalized to zero hour (substrate use), 9 hr [4]: 4.21; 590 nm absorbance normalized to zero hour (substrate use), 10 hr [4]: 4.43; 590 nm absorbance normalized to zero hour (substrate use), 11 hr [4]: 5.05
